Data published in the supplement of paper PMC6045584.
± gives the standard deviation of the averaged measurements.

Key:
[1] = compound: Cc1nc(Nc2n[nH]c3c2CN(C(=O)N[C@H](CN(C)C)c2ccccc2)C3(C)C)c2sccc2n1; assay: surviving fraction relative to DMSO-only wells; higher = less growth inhibition; conditions: exposure time: 5 days
How it was run: (§1)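 Tumour cell lines were grown to log phase and seeded at 250–500 cells per well in 384-well plates. They were exposed continuously to inhibitors at 0.5, 1, 5, 10, 50, 100, 500 and 1000 nM for five days, beginning 24 hours after seeding. Surviving fraction is CellTiter-Glo luminescence normalised to the median of DMSO-only wells.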

[2] = compound: CCC1=C[C@@H]2CN(C1)Cc1c([nH]c3ccccc13)[C@@](C(=O)OC)(c1cc3c(cc1OC)N(C)[C@H]1[C@@](O)(C(=O)OC)[C@H](OC(C)=O)[C@]4(CC)C=CCN5CC[C@]31[C@@H]54)C2 [VINORELBINE]; assay: as above; conditions: exposure time: 5 days
How it was run: as §1

Test System	surviving fraction ([1]; 0.5 nM)	surviving fraction ([1]; 1 nM)	surviving fraction ([1]; 5 nM)	surviving fraction ([1]; 10 nM)	surviving fraction ([1]; 50 nM)	surviving fraction ([1]; 100 nM)	surviving fraction ([1]; 500 nM)	surviving fraction ([1]; 1000 nM)	surviving fraction ([2]; 0.5 nM)	surviving fraction ([2]; 1 nM)	surviving fraction ([2]; 5 nM)	surviving fraction ([2]; 10 nM)	surviving fraction ([2]; 50 nM)	surviving fraction ([2]; 100 nM)	surviving fraction ([2]; 500 nM)	surviving fraction ([2]; 1000 nM)
SNU475 LIVER	0.974 ± 0.027	0.918 ± 0.067	0.724 ± 0.06	0.633 ± 0.032	0.509 ± 0.0096	0.467 ± 0.024	0.393 ± 0.015	0.244 ± 0.015	0.982 ± 0.019	0.998 ± 0.011	1.01 ± 0.029	1 ± 0.038	0.386 ± 0.041	0.197 ± 0.021	0.17 ± 0.019	0.204 ± 0.032
SG31 HEADNECK	0.947 ± 0.073	1.01 ± 0.088	0.671 ± 0.076	0.909 ± 0.17	0.456 ± 0.0092	0.609 ± 0.067	0.241 ± 0.024	0.344 ± 0.033	1.08 ± 0.15	1.19 ± 0.14	0.848 ± 0.12	0.82 ± 0.11	0.369 ± 0.04	0.315 ± 0.021	0.308 ± 0.057	0.38 ± 0.072
HS57T BREAST	0.895 ± 0.062	0.685 ± 0.022	0.366 ± 0.02	0.305 ± 0.019	0.287 ± 0.018	0.255 ± 0.0075	0.151 ± 0.02	0.0643 ± 0.0085	1.01 ± 0.08	0.957 ± 0.03	0.682 ± 0.0066	0.118 ± 0.011	0.07 ± 0.002	0.0703 ± 0.013	0.0633 ± 0.0096	0.0723 ± 0.0084
SAOS2 BONE	0.797 ± 0.0017	0.645 ± 0.062	0.509 ± 0.016	0.4777 ± 0.004	0.42 ± 0.019	0.376 ± 0.025	0.12 ± 0.018	0.034 ± 0.0017	1.12 ± 0.014	1.18 ± 0.066	1.07 ± 0.06	0.812 ± 0.038	0.155 ± 0.0063	0.0997 ± 0.0029	0.11 ± 0.0081	0.104 ± 0.032
SCC36 HEADNECK	0.862 ± 0.084	0.681 ± 0.052	0.258 ± 0.011	0.188 ± 0.019	0.152 ± 0.011	0.164 ± 0.029	0.101 ± 0.0062	0.106 ± 0.0084	1.09 ± 0.15	0.927 ± 0.057	1.09 ± 0.093	0.819 ± 0.059	0.161 ± 0.0035	0.135 ± 0.026	0.0993 ± 0.011	0.1 ± 0.024
HCC78 LUNG	0.721 ± 0.087	0.967 ± 0.1	0.323 ± 0.047	0.454 ± 0.14	0.263 ± 0.027	0.231 ± 0.03	0.203 ± 0.036	0.21 ± 0.041	0.958 ± 0.18	0.806 ± 0.26	0.877 ± 0.25	0.575 ± 0.15	0.0987 ± 0.045	0.094 ± 0.016	0.0637 ± 0.012	0.042 ± 0.011
PCI30 HEADNECK	0.882 ± 0.021	0.823 ± 0.028	0.579 ± 0.015	0.599 ± 0.038	0.538 ± 0.022	0.514 ± 0.024	0.344 ± 0.014	0.0833 ± 0.019	0.994 ± 0.024	1.05 ± 0.02	0.463 ± 0.054	0.228 ± 0.017	0.078 ± 0.003	0.0933 ± 0.022	0.113 ± 0.025	0.147 ± 0.025
JURKAT HAEMATOPOIETIC AND LYMPHOID TISSUE	1.01 ± 0.032	0.939 ± 0.02	0.169 ± 0.0038	0.095 ± 0.0044	0.0877 ± 0.004	0.086 ± 0.001	0.06 ± 0.001	0.051	1.07 ± 0.02	1.066 ± 0.0099	0.952 ± 0.041	0.168 ± 0.034	0.0297 ± 0.00058	0.0247 ± 0.00058	0.025	0.0233 ± 0.00058
SG43 HEADNECK	1.23 ± 0.11	1.11 ± 0.22	0.921 ± 0.13	0.784 ± 0.34	1.14 ± 0.2	0.959 ± 0.16	0.971 ± 0.055	1.35 ± 0.2	1.04 ± 0.14	1.13 ± 0.097	0.785 ± 0.095	0.669 ± 0.075	0.47 ± 0.036	0.364 ± 0.093	0.242 ± 0.066	0.138 ± 0.066
MG63 BONE	0.921 ± 0.038	0.805 ± 0.025	0.468 ± 0.0074	0.336 ± 0.024	0.257 ± 0.016	0.275 ± 0.0096	0.228 ± 0.015	0.227 ± 0.013	1.02 ± 0.025	1 ± 0.043	1.06 ± 0.02	1 ± 0.023	0.07 ± 0.0095	0.0503 ± 0.014	0.0683 ± 0.0071	0.065 ± 0.0046
